Entries after “also recorded” stand apart in the source; their conditions may differ.
Experiments:
[1] = tested on: NMDA receptor (cortical neurons); experiment: Patch-clamp recording of NMDA-evoked current in cortical neurons; format: cell-based, rat (Sprague-Dawley); conditions: for Effect on NMDA-evoked current: 50 μM NMDA + 1 μM glycine, -60 mV, DTT 2 mM, NTG 500 μM, DTNB 500 μM, 2 min exposure, washout, FIG. 4
[2] = tested on: NMDA receptor (rat cortical neurons in culture); experiment: Digital fura-2 imaging of NMDA-evoked intracellular [Ca2+] in cultured cortical neurons; format: cell-based, rat (Sprague-Dawley); conditions: 50 μM NMDA; Examples 1-2; NTG 100 μM in Example 2
Description: The concentration of intracellular free Ca^2+ ([Ca^2+ ]i) is measured in neonatal cortical neurons by digital imaging microscopy with the Ca^2+ sensitive fluorescent dye fura 2, as follows. The same cortical neuronal cultures as described above are used. During Ca^2+ measurements, unless otherwise stated the fluid bathing the neurons consists of Hanks' balanced salts: 137.6 mM NaCl, 1 mM NaHCO3, 0.34 mM Na2 HPO4, 0.44 mM KH2 PO4, 5.36 mM KCl, 1.25 mM CaCl2, 0.5 mM MgSO4, 0.5 mM MgCl2, 5 mM Hepes NaOH, 22.2 mM glucose, and sometimes with phenol red indicator (0.001% v/v); pH 7.2. NMDA (in the absence Mg^++), glutamate, and other substances are usually applied to the neurons by pressure ejection after dilution in this bath solution. Neuronal [Ca^2+ ]i is analyzed with fura 2-acetoxy-methyl ester (AM) as described [Grynkiewicz, et al., J. Biol. Chem. 260:3440 (1985); Williams et al., Nature 318:558 (1985); Connor et al., J. Neurosci. 7:1384 (1987); Connor et al., Science 240:649 (1988); Cohan et al., J. Neurosci. 7:3588 (1987); Mattson, et al., ibid, 9:3728 (1989)]. After adding Eagle's minimum essential medium containing 10 μM fura 2-AM to the neurons, the cultures are incubated at 37° C. in a 5% CO2 /95% air humidified chamber and then rinsed. The dye is loaded, trapped, and deesterified within 1 hour, as determined by stable fluorescence ratios and the effect of the Ca^2+ ionophore ionomycin on [Ca^2+ ]i is measured. During Ca^2+ imaging, the cells are incubated in a solution of Hepes-buffered saline with Hanks' balanced salts. The [Ca^2+ ]i is calculated from ratio images that are obtained by measuring the fluorescence at 500 nm that is excited by 350 and 380 nm light with a DAGE MTI 66 SIT or QUANTEX QX-100 Intensified CCD camera mounted on a Zeiss Axiovert 35 microscope. Exposure time for each picture is 500 ms. Analysis is performed with a Quantex (Sunnyvale, Calif.) QX7-210 image-processing system. Since cells are exposed to ultraviolet light only during data collection (generally less than a total of 20 s per cell), bleaching of fura 2 is minimal.
In this experiment, the effect of NTG on intracellular [Ca^++ ] increases induced by NMDA were followed using digital [Ca^++ ] imaging techniques, based on the dye fura-2.
Specifically, the model for NMDA-mediated neurotoxicity involves exposure of cultured rat cortical neurons to NMDA in the presence of glycine (a co-agonist).
Cortical cultures were derived from embryonic (fetal day 15 or 16) Sprague-Dawley rats as described previously (Dichter, 1978; Rosenberg and Aizenman, 1989). […]

[3] = adult treated for Parkinson's symptoms for several weeks; reversible after discontinuation; cited from earlier work
[4] = tested on: cortical neurons (neuronal survival); conditions: SNOC or purified peroxynitrite incubation; listed as OONO^-
Description: S-nitrosocysteine was added as a source of NO.cndot. to cerebrocortical cultures (Lei et al., (1992) Neuron 8:1087-1099; Stamler et al., (1992) Science 258:1898-1902).
Peroxynitrite leads to lipid peroxidation and massive oxidation of sulfhydryls (Radi et al., (1991) J. Biol. Chem. 266:4244-4250; Radi et al., (1991) Arch. Biochem. Biophys. 288:481-487).
Values are expressed as mean+s.e.m. (n=9). Statistical comparisons were performed by an analysis of variance followed by a Scheffe multiple comparison of means (*, P<0.01 compared to control; **, P<0.05 compared to control; .dagger., P<0.01 compared to nitroso compound+SOD/catalase).
Specifically, the data in FIG. 7 were generated using mixed neuronal and glial cortical cultures from neonatal rats, as described previously (Lei, et al., (1992) Neuron 8:1087-1099). In at least three separate experiments, triplicate cultures were incubated overnight in Earle's buffered saline solution (EBSS) containing various concentrations of SNOC, peroxynitrite, SOD, catalase, or glutamate. […] The culture fluid was assayed for […] (LDH) as an indicator of neuronal survival by measuring the absorbance at 450 nm (Koh et al., (1987) J. Neurosci. Meth. 20:83-90). The cultures were also scored for neuronal viability by cell counting, generally with 0.2% trypan blue, after fixation in 2.5% glutaraldehyde, as described above. Neurons from cultures grown on 15 mm diameter cover slips were counted in a masked fashion in ~30 microscopic fields at 200 x.

[5] = tested on: cortical neurons (NMDA receptor-mediated neurotoxicity); experiment: Neurotoxicity assay: survival of cortical neurons after DTT and NMDA exposure; format: cell-based, rat; conditions: chemical reduction of redox modulatory site
Description: To test compounds for their ability to prevent neurotoxicity, neuronal cell death may be assayed as follows. […] The candidate compound is tested by addition (e.g., in a series of concentrations ranging from 0.1 nM-10 mM) after DTT treatment but before NMDA treatment. The candidate compound can be added for minutes, hours, or even days prior to its washout period. […] Neuronal cultures are scored for cell survival after this overnight incubation because NMDA toxicity is often delayed by several hours following NMDA exposure.
Using the neurotoxicity assay described above, the compounds sodium nitroprusside and nitroglycerin were tested individually for their ability to increase survival of neonatal cortical neurons.
As shown in FIG. 6A-6D, surviving neurons are expressed as the percentage of viable neurons in the control culture dishes in the same experiment. The concentrations of drugs were as follows: APV (2 mM), NTG (100 μM), SNP (400 μM), DTT (0.5-2 mM), and reduced Hb (500 μM). […] Values are mean ±SEM for experiments run in triplicate on sibling cultures on separate days (total of 32 experiments). Astericks indicate significant difference compared with the value for DTT-NMDA exposure, P<0.05 (ANOVA followed by Scheffe multiple comparison of means.

[6] = tested on: NMDA receptor (rat cortical neurons in culture); experiment: Digital fura-2 imaging of NMDA-evoked intracellular [Ca2+] in cultured cortical neurons; format: cell-based, rat (Sprague-Dawley); conditions: for Effect on NMDA-evoked [Ca2+]i response (SNOC experiment): after 2 mM DTT, 3 min exposure to 100 μM SNOC, NMDA 50 μM, FIG. 5A, P<0.01

## O=C(O)c1cc(SSc2ccc([N+](=O)[O-])c(C(=O)O)c2)ccc1[N+](=O)[O-] [DTNB, 5,5dithio-bis-2-nitrobenzoic acid]
[1]
  Effect on NMDA-evoked current: decreased the responses slightly
[1]; after 1-5 mM NEM
  Effect on amplitude of NMDA evoked current following alkylation with NEM: neither NTG nor DTNB significantly affected the amplitude of NMDA evoked current
[2]
  Effect on NMDA-evoked [Ca2+]i response: decreased the NMDA evoked [Ca^2+ ]i responses

## Cl.NC12CC3CC(CC(C3)C1)C2 [amantadine, 1-adamantanamine hydrochloride]
[3]
  Visual loss (case report): one case report of visual loss in an adult patient

## O=NOO [peroxynitrite]
[4]
  Killing of cortical neurons: kills neurons in a dose-dependent fashion

## O[C@H](CS)[C@H](O)CS (racemic) [DTT, dithiothreitol]
[1]
  Effect on NMDA-evoked current: enhanced the NMDA-evoked current; also recorded: increased NMDA-activated currents
[5]
  Effect on neurotoxic effect of NMDA: increases the neurotoxic effect of NMDA
[2]
  Effect on NMDA-evoked [Ca2+]i response: reversed the effect of NTG
[6]
  Effect on NMDA-evoked [Ca2+]i response (SNOC experiment): the NMDA-evoked response was increased; also recorded: fully reversed the inhibitory effect of S-nitrosocysteine

## NC(CSN=O)C(=O)O (stereo not shown) [S-nitrosocysteine (SNOC)]
[6]
  Effect on NMDA-evoked [Ca2+]i response (SNOC experiment): inhibited

## CCN1C(=O)C=CC1=O [NEM, N-ethylmalemide]
[6]; NEM pretreatment, FIG. 5B
  Effect of NEM pretreatment on the SNOC effect on NMDA-evoked [Ca2+]i: blocks the effect of SNOC

## CN[C@H](CC(=O)O)C(=O)O [NMDA, N-methyl-D-aspartate]
[6]; NMDA 50 μM after 2 mM DTT, FIG. 5
  Maximum NMDA response obtained after exposure to DTT, [Ca2+]i: ~ 750 nM [Ca2+]i

## O[C@H](CS)[C@H](O)CS (relative stereo) [dithiothreitol (DTT)]
[2]
  Effect on NMDA-evoked [Ca2+]i response: further enhanced
